Source: US20120277272A1, “Ethanamine Compounds and Methods of Using the Same” (priority 2008, published 2012)
Structures can show the parent of a compound that is named as a salt. Where two headings read alike, the source gives them in different places.

Experiments:
[1] = target: T1, NMDA receptor; assay: MK801 binding inhibition (NMDA receptor antagonist activity in vitro); settings: inhibition of MK801 binding to the NMDA receptor
T1 construct: Mean Ki; Mean Maximum effect
Protocol: (§1) NMDA receptor antagonist activity can be measured in vitro by assaying a compound's ability to inhibit binding of the receptor antagonist 10,11-dihydro-5-methyl-5H-dibenzo[a,d]-cyclohepten-5,10-imine (MK801) to the receptor. The method is described by Foster and Wong, Br. J. Pharmacol. 91, 403-409 (1987).
as §1, with “was” for “can be”, “10,11-dihdro-5-methyl-5H-dibenzo[a,d]-cyclohepten-5,10-imine” for “10,11-dihydro-5-methyl-5H-dibenzo[a,d]-cyclohepten-5,10-imine”

[2] = target: Human NR1/NR2A channel (Homo sapiens, UniProt Q05586+Q12879); assay: Automated patch clamp (QPatch16) block of NR1/NR2A channel currents in CHO-1H8 cells; format: cell-based
Human NR1/NR2A channel, sequence (Q12879 23-1464, other chains not shown): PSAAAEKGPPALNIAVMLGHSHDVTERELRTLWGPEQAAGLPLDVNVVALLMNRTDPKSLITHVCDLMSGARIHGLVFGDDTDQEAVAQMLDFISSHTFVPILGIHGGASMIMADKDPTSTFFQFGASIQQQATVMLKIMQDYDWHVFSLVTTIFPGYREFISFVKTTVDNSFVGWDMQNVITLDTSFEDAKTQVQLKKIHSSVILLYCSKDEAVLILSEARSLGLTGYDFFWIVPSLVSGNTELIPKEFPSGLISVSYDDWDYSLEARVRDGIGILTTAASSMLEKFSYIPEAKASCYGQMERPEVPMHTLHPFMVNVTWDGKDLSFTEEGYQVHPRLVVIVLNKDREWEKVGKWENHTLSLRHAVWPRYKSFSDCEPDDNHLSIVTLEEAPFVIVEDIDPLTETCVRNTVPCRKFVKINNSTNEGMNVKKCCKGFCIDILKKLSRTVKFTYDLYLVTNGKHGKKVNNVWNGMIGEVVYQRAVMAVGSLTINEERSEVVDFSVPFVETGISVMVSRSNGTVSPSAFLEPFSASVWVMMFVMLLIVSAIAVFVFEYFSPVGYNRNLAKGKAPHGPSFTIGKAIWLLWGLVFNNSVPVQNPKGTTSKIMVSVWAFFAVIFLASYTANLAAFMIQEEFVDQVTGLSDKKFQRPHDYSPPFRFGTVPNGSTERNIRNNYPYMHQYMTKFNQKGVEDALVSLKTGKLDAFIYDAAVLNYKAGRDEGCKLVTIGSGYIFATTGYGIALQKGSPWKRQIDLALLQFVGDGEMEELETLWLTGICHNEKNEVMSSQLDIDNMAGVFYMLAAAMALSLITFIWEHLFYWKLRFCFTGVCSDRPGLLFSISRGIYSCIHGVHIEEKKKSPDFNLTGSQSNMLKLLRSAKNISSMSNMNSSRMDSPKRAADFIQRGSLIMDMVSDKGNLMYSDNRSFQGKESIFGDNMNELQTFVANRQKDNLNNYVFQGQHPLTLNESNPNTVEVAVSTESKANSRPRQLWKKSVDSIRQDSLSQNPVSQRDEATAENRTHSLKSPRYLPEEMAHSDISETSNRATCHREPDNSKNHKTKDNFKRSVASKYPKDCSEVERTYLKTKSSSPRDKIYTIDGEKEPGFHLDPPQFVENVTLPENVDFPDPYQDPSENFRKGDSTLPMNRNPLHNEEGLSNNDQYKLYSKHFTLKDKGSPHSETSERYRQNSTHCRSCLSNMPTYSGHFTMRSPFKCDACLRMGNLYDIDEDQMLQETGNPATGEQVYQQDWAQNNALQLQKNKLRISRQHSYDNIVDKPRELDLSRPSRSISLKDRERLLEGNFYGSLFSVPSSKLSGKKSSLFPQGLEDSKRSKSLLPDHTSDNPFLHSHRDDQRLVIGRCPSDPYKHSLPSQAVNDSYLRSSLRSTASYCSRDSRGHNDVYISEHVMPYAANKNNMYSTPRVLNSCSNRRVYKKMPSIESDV
Protocol: Chinese Hamster Ovary (CHO-KI) cells were transfected with Effectene^R reagent following the manufacturer's instructions. Cells were triply transfected with plasmids pTet-Off, pTRE2-pur hNR1, and pGEN IRES Hyg-hNR2A. Transfection was done in medium containing Ham's F12, 10% FBS, 2 mM L-Glutamine, 200 μM ketamine and 2 μg/ml doxycycline. 24 hours post transfection, cells were split 1:10 into medium in which 200 μM ketamine was replaced with 20 μM MK-801. After an additional 24 hours (48 hours post transfection), antibiotic selection was performed as follows: 1 μg/ml puromycin, 500 μg/ml hygromycin, and 500 μg/ml geneticin (G418). After two weeks in the selection medium (with medium changes every 3-5 days), 15-20 clones developed in the flask. These clones were pooled and cultured for one more week. Cells were then clonally plated in two 96-well plates at 1 cell/well by limiting dilution. After three weeks, cells were trypsinized and each original 96-well plate was divided into two; one plate was cultured in the presence of 2 μg/ml doxycycline and the other was cultured for assay without doxycycline. After three days, the assay plates were screened for functional NMDAR expression by stimulating with 50 μM glycine/100 μM glutamate. Two positive clones were expanded and tested for glutamate dose response with glycine fixed at 30 μM. One clone, CHO-1H8 gave robust, dose-dependent response to glutamate and was selected for further characterization.
For routine culture, CHO-1H8 cells were maintained in Ham's F-12+2 mM L-Glutamine (PAA, E15-817), 10% FBS (Sigma, F7442), 1 μg/mL puromycin (Invitrogen A1113802), 250 μg/mL hygromycin (Invitrogen 10687010), 250 μg/mL geneticin (Invitrogen 11811-098), 1 μg/mL doxycycline (Sigma D9891), and 300 μM of the NMDA-channel blocker (R)-α-amino-6,7-dimethyl-3-(phosphonomethyl)-2-quinolinepropanoic acid (CAS 170847-87-7, Swahn et al., Bioorg. Med. Chem. Lett. 1996, 1635). Cells to be used in functional assay were grown in same medium as above, but with 1 μg/mL doxycycline replaced by 2 μg/mL tetracycline (Sigma T7660) three days before induction. Growth medium was replaced every 2-3 days, i.e. Monday-Wednesday-Friday. For induction of NMDAR expression, CHO-1H8 cells were cultured without doxycycline or tetracycline (but with CAS 170847-87-7) for 48 hours in medium prepared with Tet System-Approved FBS (BD Biosciences). […]
In order to evaluate effects of test compounds as inhibitors of NR1/NR2A channels, the channels were first activated by addition of a NMDAR agonist NMDA (Sigma, M3262) and Glycine (Merck, 3570) to the extracellular bath solution. […] NR1/NR2A currents were recorded for 12 sec after activation with 100 μM NMDA/10 μM Glycine (Icontrol). […]

[3] = tested on: NMDA receptor; assay: NMDA trapping; format: cell-based; settings: Table 4; as described in Mealing et al. 2001
Description: Trapping data was generated as described in Mealing et al., J. Pharmacol. Exp. Therapeutics 2001, (297/3), 906-914.

[4] = Table 1, read-out: MK801 Binding IC50
[5] = Table 4, NR1/NR2A currents, cells clamped at −60 mV, activated with 100 μM NMDA/10 μM Glycine, 0.41-33.33 μM compound, read-out: Mean IC50
[6] = Table 3, listed as Ex 8, fumarate salt

## CC(C)(c1ccccn1)[C@H](N)c1ccccc1 (as salt: HCl) [Example 2, (R)-2-methyl-1-phenyl-2-(pyridin-2-yl)propan-1-amine]
other
  melting point: 188 °C

## CC(C)(c1ccccn1)[C@@H](N)c1ccccc1 (as salt: HCl) [Example 3, (S)-2-methyl-1-phenyl-2-(pyridin-2-yl)propan-1-amine]
other
  melting point: 188 °C

## CC(C)(c1ccccn1)C(N)c1ccccc1 (racemic) (as salt: hydrochloride) [Example 1, 2-methyl-1-phenyl-2-(pyridin-2-yl)propan-1-amine]
other
  melting point: 188 °C

## CC(C)(c1ccccn1)C(N)c1ccccc1 (racemic) [Example 1, 2-methyl-1-phenyl-2-(pyridin-2-yl)propan-1-amine]
[1]; [4]
  IC50: 12 µM
[1]; Table 3
  Ki: 4.9 µM
  Mean Maximum effect: 75%
[1]; Table 3, read-out: Mean IC50
  IC50: 12 µM

## CC(C)(c1ccccn1)C(N)c1cccc(F)c1 (racemic) [Example 4, 1-(3-fluorophenyl)-2-methyl-2-(pyridin-2-yl)propan-1-amine]
[1]; [4]
  IC50: 3.3 µM

## CC(C)(c1ccccn1)C(N)c1cccc(F)c1.O=C(O)/C=C/C(=O)O (racemic) [Example 9, 1-(3-Fluorophenyl)-2-methyl-2-(pyridin-2-yl)propan-1-amine fumarate salt, racemate]
[1]; Table 3
  Ki: 1.3 µM
  Mean Maximum effect: 83%
[1]; Table 3, read-out: Mean IC50
  IC50: 3.2 µM

## N[C@@H](Cc1ccccn1)c1ccccc1 (single isomer, unassigned) [Example 13, dihydrochloride, reference compound]
[1]; Table 3
  Ki: 2.9 µM
  Mean Maximum effect: 89%
[1]; Table 3, read-out: Mean IC50
  IC50: 6.6 µM
[2]
  IC50: 6 µM
[3]
  Trapping: 53%

## N[C@H](Cc1ccccn1)c1ccccc1 (single isomer, unassigned) [Example 14, dihydrochloride, reference compound]
[2]
  IC50: 10 µM

## CC(C)(c1ccccn1)C(N)c1cccc(F)c1.O=C(O)/C=C/C(=O)O (single isomer, unassigned; stereoisomer 1) [Example 10, 1-(3-fluorophenyl)-2-methyl-2-(pyridin-2-yl)propan-1-amine fumarate salt, stereoisomer 1]
[1]; Table 3, listed as Ex 10
  Ki: 15 µM
  Mean Maximum effect: 87%
[1]; Table 3, listed as Ex 10, read-out: Mean IC50
  IC50: 25 µM

## CC(C)(c1ccccn1)C(N)c1cccc(F)c1.O=C(O)/C=C/C(=O)O (single isomer, unassigned; stereoisomer 2) [Example 11, 1-(3-fluorophenyl)-2-methyl-2-(pyridin-2-yl)propan-1-amine fumarate salt, stereoisomer 2]
[1]; Table 3, listed as Ex 11
  Ki: 2.5 µM
  Mean Maximum effect: 97%
[1]; Table 3, listed as Ex 11, read-out: Mean IC50
  IC50: 4.1 µM

## CC(C)(c1ccccn1)[C@H](N)c1ccccc1 [Example 2, (R)-2-methyl-1-phenyl-2-(pyridin-2-yl)propan-1-amine]
[1]; [4]
  IC50: 6.4 µM
[1]; Table 3
  Ki: > 7.9 µM
  Mean Maximum effect: 64%
[1]; Table 3, read-out: Mean IC50
  IC50: > 25 µM
[2]; [5]
  IC50: 10 µM

## CC(C)(c1ccccn1)[C@@H](N)c1ccccc1 [Example 3, (S)-2-methyl-1-phenyl-2-(pyridin-2-yl)propan-1-amine]
[1]; [4]
  IC50: 35 µM
[1]; Table 3, listed as Ex 3
  Ki: 1.8 µM
  Mean Maximum effect: 76%
[1]; Table 3, listed as Ex 3, read-out: Mean IC50
  IC50: 5.7 µM
[2]; [5]
  IC50: 3 µM
[3]
  Trapping: 39%

## CC(C)(c1ccccn1)[C@H](N)c1cccc(F)c1 [Example 5, (R)-1-(3-fluorophenyl)-2-methyl-2-(pyridin-2-yl)propan-1-amine]
[1]; [4]
  IC50: 5.5 µM

## CC(C)(c1ccccn1)[C@@H](N)c1cccc(F)c1 [Example 6, (S)-1-(3-fluorophenyl)-2-methyl-2-(pyridin-2-yl)propan-1-amine]
[1]; [4]
  IC50: 25 µM

## CC(C)(c1ccccn1)[C@@H](N)c1ccccc1 [Example 8, (S)-2-methyl-1-phenyl-2-(pyridine-2-yl)propan-1-amine fumarate salt]
[1]; [6]
  Ki: 3.2 µM
  Mean Maximum effect: 90%
[1]; Table 3, listed as Ex 8, fumarate salt, read-out: Mean IC50
  IC50: 5.1 µM
